Experimental data published in patent US8394797B2, “Substituted pyrazole sigma receptor antagonists” (Laboratorios Del Dr. Esteve, S.A., priority 2004, dated 2013).
pKi: −log10 of the molar value. Counter-ions that a name gives are not always drawn. Like-named read-outs stand apart in the source and are kept apart here.

Tests used:
[1] = system: capsaicin-induced mechanical allodynia in mice; experiment: Effect on capsaicin in development of mechanical allodynia (von Frey filaments); type: in vivo; settings: for antiallodynic effect: mice, capsaicin, von Frey filaments
Protocol: Effect on Capsaicin in Development of Mechanical Allodynia This model uses the von-Frey Filaments and is a model to test the effects or symptoms of neuropathic pain, allodynia etc. […]. After habituation mice were according to FIG. 1 first treated with the test-compound (or solvent in controls). Then […] (1% DMSO) is injected into their paw resulting in developing pain in the effected paw. The effected paw is then treated with a mechanical stimulus and the latency time before the paw is withdrawn is measured.

[2] = target: T1, σ2-receptor (Mus musculus, UniProt Q8VD00); experiment: Sigma-2 receptor binding, [3H]-DTG, brains from sigma-1 knockout mice; settings: for inhibition at 1 µM: 2 h, tested compound at 10^-6 M, [3H]-DTG 3 nM, read-out: binding sigma-2 (*) % of radioactively labeled compound replaced by the tested compound; for pKi: [3H]-DTG, sigma-1 knockout mouse brain
T1 construct: brains from sigma receptor type I (sigma-1) knockout mice were homogenized; from tissue; host or cells: brain membranes of sigma-1 knockout mice
T1 sequence (Q8VD00 1-176): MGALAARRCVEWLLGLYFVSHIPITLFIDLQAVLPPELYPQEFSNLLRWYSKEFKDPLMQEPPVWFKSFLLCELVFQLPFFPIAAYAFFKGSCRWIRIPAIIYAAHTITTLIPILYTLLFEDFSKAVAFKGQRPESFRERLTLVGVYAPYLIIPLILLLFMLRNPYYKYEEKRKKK
Protocol: In brief, brains from sigma receptor type I (sigma-1) knockout mice were homogenized in a volume of 10 mL/g tissue net weight of ice-cold 10 mM Tris-HCl, pH 7.4, containing 320 mM sucrose (Tris-sucrose buffer) with a Potter-Elvehjem homogenizer (10 strokes at 500 r.p.m.) The homogenates were then centrifuged at 1000 g for 10 min at 4° C., and the supernatants were saved. The pellets were resuspended by vortexing in 2 mL/g ice-cold Tris-sucrose buffer and centrifuged again at 1000 g for 10 min. The combined 1000 g supernatants were centrifuged at 31000 g for 15 min at 4° C. The pellets were resuspended by vortexing in 3 mL/g 10 mM Tris-HCl, pH 7.4, and the suspension was kept at 25° C. for 15 min.
The assay tubes contained 10 μL of [^3H]-DTG (final concentration of 3 nM), 400 μL of the tissue suspension (5.3 mL/g in 50 mM Tris-HCl, pH 8.0) to a final assay volume of 0.5 mL. Non-specific binding was defined by addition of a final concentration of 1 μM haloperidol. […] Filters were washed with three times with 5 mL volumes of cold Tris-HCl buffer (10 mM, pH 8.0). Following addition of scintillation cocktail samples were allowed to equilibrate overnight.

[3] = target: T2, σ1-receptor (Cavia porcellus, UniProt Q60492); experiment: Sigma-1 receptor binding, [3H](+)-pentazocine, brain membranes; design: species or system guinea pig; settings: for inhibition at 1 µM: 2.5 h, read-out: binding sigma-1 (*) % of radioactively labeled compound replaced by the tested compound
T2 construct: guinea pig brains were homogenized; from tissue; host or cells: guinea pig brain membranes
T2 sequence (Q60492 whole entry): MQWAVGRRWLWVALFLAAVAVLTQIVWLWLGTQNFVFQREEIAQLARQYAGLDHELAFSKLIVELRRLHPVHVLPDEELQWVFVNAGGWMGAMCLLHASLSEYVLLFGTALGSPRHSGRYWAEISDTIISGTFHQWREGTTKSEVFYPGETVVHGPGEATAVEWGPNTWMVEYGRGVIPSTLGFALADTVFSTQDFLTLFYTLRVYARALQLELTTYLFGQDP

[4] = system: carrageenan-induced thermal hyperalgesia in mice; experiment: Carrageenan-induced thermal hyperalgesia model (plantar test, Hargreaves); type: in vivo; settings: for activity in the carrageenan thermal hyperalgesia model: mice, two hours after carrageenan
Protocol: Some compounds were also evaluated for antinociceptive activity in the carrageenan-induced thermal hyperalgesia model in mice. In this model, two hours after carrageenan injection into the paw, the plantar test was used to assess thermal hyperalgesia according to the method described by Hargreaves et al. (1988). The compounds of Examples 58 and 62.

[5] = system: mechanical allodynia after partial sciatic nerve ligation in mice; experiment: Partial sciatic nerve ligation model of neuropathic pain (von Frey test); type: in vivo; settings: 30 mg/kg s.c.; 11-13 days after surgery
Excerpt: The von Frey test was used to assess mechanical allodynia 11-13 days after surgery.

[6] = target: sigma-1 site (Homo sapiens, UniProt Q99720); settings: cited from earlier work
Chain of sigma-1 site (Q99720 whole entry): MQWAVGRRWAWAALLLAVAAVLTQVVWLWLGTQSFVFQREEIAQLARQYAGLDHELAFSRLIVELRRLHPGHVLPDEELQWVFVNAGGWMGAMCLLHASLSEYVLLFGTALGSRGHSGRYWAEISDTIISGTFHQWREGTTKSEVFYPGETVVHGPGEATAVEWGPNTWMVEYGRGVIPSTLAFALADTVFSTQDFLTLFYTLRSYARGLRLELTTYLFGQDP

[7] = target: sigma-2 site (Homo sapiens, UniProt Q5BJF2); settings: cited from earlier work
Chain of sigma-2 site (Q5BJF2 whole entry): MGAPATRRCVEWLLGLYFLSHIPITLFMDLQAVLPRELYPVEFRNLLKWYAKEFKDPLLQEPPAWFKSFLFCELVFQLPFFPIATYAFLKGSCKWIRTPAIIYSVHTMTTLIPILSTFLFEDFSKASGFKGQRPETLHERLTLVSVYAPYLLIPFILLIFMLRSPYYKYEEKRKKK

[8] = tested compound at 10^-6 M, [3H](+)-pentazocine 0.5 nM
[9] = [3H](+)-pentazocine, guinea pig brain membranes, read-out: binding sigma-1 Ki

c1ccc(-n2ncc3c2CCCC3CCN2CCOCC2)cc1 (stereo not shown) [Example 2, 4,5,6,7-tetrahydro-4-(2-(morpholin-4-yl)ethyl)-1-phenyl-1H-indazole oxalate]
antiallodynic effect [1]: clear antiallodynic effect

C(/CN1CCC2(CC1)OCc1ccccc12)=C1/CCCc2c1cnn2-c1ccccc1.O=C(O)C(=O)O [Example 19, (E)-4,5,6,7-tetrahydro-1-phenyl-4-(2-[spiro[isobenzofuran-1(3H), 4′-piperidin]-1′-yl]ethylidene)-1H-indazole oxalate]
melting point: 155 to 157 °C
inhibition at 1 µM [2]: 91%
pKi [2]: 6.32
pKi [3]: 8.31
inhibition at 1 µM [3]: 100%

C(/CN1CCCC(c2ccccc2)C1)=C1/CCCc2c1cnn2-c1ccccc1 (stereo not shown) [Example 23, (E)-4,5,6,7-tetrahydro-1-phenyl-4-(2-(3-phenylpiperidin-1-yl)ethylidene)-1H-indazole]
melting point: 136 to 138 °C
inhibition at 1 µM [2]: 67.4%
inhibition at 1 µM [3, 8]: 99.4%
pKi [3, 9]: 7.63

O=C(O)C(=O)O.c1ccc(-n2ncc3c2CCC3CCN2CCOCC2)cc1 (stereo not shown) [Example 31, 1,4,5,6-tetrahydro-4-(2-(morpholin-4-yl)ethyl)-1-phenylcyclopenta[c]pyrazole oxalate]
melting point: 159 to 161.8 °C
inhibition at 1 µM [2]: 88.7%
pKi [2]: 7.76
inhibition at 1 µM [3, 8]: 101%
pKi [3, 9]: 8.92

O=C(O)C(=O)O.c1ccc(-n2ncc3c2CCC3CCN2Cc3ccccc3C2)cc1 (stereo not shown) [Example 35, 2-(2-(1,4,5,6-tetrahydro-1-phenylcyclopenta[c]pyrazol-4-yl)ethyl)isoindoline oxalate]
melting point: 195 to 197 °C
inhibition at 1 µM [2]: 26.4%
inhibition at 1 µM [3, 8]: 101%
pKi [3, 9]: 8.03

c1ccc(C2CCN(CCC3CCc4c3cnn4-c3ccccc3)CC2)cc1 (stereo not shown) [Example 36, 1,4,5,6-tetrahydro-1-phenyl-4-(2-(4-phenylpiperidin-1-yl)ethyl)cyclopenta[c]pyrazole]
melting point: 83 to 86 °C
inhibition at 1 µM [2]: 87.9%
inhibition at 1 µM [3, 8]: 103%
pKi [3, 9]: 8.23

O=C(O)C(=O)O.c1ccc(-n2ncc3c2CCC3CCN2CCc3ccccc3C2)cc1 (stereo not shown) [Example 44, 1,2,3,4-tetrahydro-2-(2-(1,4,5,6-tetrahydro-1-phenylcyclopenta[c]pyrazol-4-yl)ethyl)isoquinoline oxalate]
melting point: 200.5 to 203 °C
inhibition at 1 µM [2]: 99.4%
pKi [2]: 6.80
inhibition at 1 µM [3, 8]: 106%
pKi [3, 9]: 8.70

c1ccc(-n2ncc3c2CCC3CCn2ccnc2)cc1 (stereo not shown) [Example 45, 4-(2-(1H-imidazol-1-yl)ethyl)-1,4,5,6-tetrahydro-1-phenylcyclopenta[c]pyrazole]
melting point: 102.9 to 105.7 °C
inhibition at 1 µM [2]: 22.8%
inhibition at 1 µM [3, 8]: 76.4%
pKi [3, 9]: 6.84

C[C@@H]1CN(CCC2CCc3c2cnn3-c2ccccc2)C[C@H](C)O1.O=C(O)C(=O)O (stereo partly drawn) [Example 47, cis-1,4,5,6-tetrahydro-4-(2-(2,6-dimethylmorpholin-4-yl)ethyl)-1-phenylcyclopenta-[c]pyrazole oxalate]
melting point: 160.2 to 161.5 °C
inhibition at 1 µM [2]: 95.9%
inhibition at 1 µM [3, 8]: 104%
pKi [3, 9]: 8.74

C[C@@H]1CN(CCC2CCCc3c2cnn3-c2ccccc2)C[C@H](C)O1.O=C(O)C(=O)O (stereo partly drawn) [Example 49, cis-4,5,6,7-tetrahydro-4-(2-(2,6-dimethylmorpholin-4-yl)ethyl)-1-phenyl-1H-indazole oxalate]
melting point: 186.6 to 190 °C
inhibition at 1 µM [2]: 94.6%
inhibition at 1 µM [3, 8]: 101%
pKi [3, 9]: 8.12

O=C(O)C(=O)O.c1ccc(-n2ncc3c2CCC3CCN2CCC3(CC2)OCc2ccccc23)cc1 (stereo not shown) [Example 51, 1,4,5,6-tetrahydro-1-phenyl-4-(2-[spiro[isobenzofuran-1(3H), 4′-piperidin]-1′-yl]ethyl)cyclopenta[c]pyrazole oxalate]
melting point: 170.5 to 173.6 °C
inhibition at 1 µM [2]: 113%
pKi [3]: 7.50
inhibition at 1 µM [3]: 107%

O=C(O)C(=O)O.c1ccc(-n2ncc3c2CCCC3CCN2Cc3ccccc3C2)cc1 (stereo not shown) [Example 56, 4,5,6,7-tetrahydro-4-(2-(isoindolin-2-yl)ethyl)-1-phenyl-1H-indazole oxalate]
melting point: 195.7 to 200 °C
inhibition at 1 µM [2]: 109%
pKi [2]: 8.85
inhibition at 1 µM [3, 8]: 106%
pKi [3, 9]: 9.52

Cn1ncc2c1CCCC2CCN1CCC(c2ccccc2)CC1.O=C(O)C(=O)O (stereo not shown) [Example 58, 4,5,6,7-tetrahydro-1-methyl-4-(2-(4-phenylpiperidin-1-yl)ethyl)-1H-indazole oxalate]
analgesia ([1]; 2 mg/kg): 100%
antiallodynic effect [1]: clear antiallodynic effect
inhibition at 1 µM [2]: 100%
pKi [2]: 8.20
analgesia ([4]; 2.5 mg/kg): 60%
analgesia ([4]; 10 mg/kg): ~90%
activity in the carrageenan thermal hyperalgesia model [4]: highly active
inhibition at 1 µM [3, 8]: 106%
pKi [3, 9]: 8.96

Cn1ncc2c1CCCC2CCN1Cc2ccccc2C1.O=C(O)C(=O)O (stereo not shown) [Example 60, 4,5,6,7-tetrahydro-4-(2-(isoindolin-2-yl)ethyl)-1-methyl-1H-indazole oxalate]
melting point: 150 to 151 °C
inhibition at 1 µM [2]: 88.2%
pKi [2]: 7.73
inhibition at 1 µM [3, 8]: 104%
pKi [3, 9]: 8.51

CN(CCC1CCCc2c1cnn2C)Cc1ccccc1.O=C(O)C(=O)O (stereo not shown) [Example 62, N-benzyl-2-(4,5,6,7-tetrahydro-1-methyl-1H-indazol-4-yl)-N-methylethanamine oxalate]
melting point: 140.2 to 141.7 °C
antiallodynic effect [1]: clear antiallodynic effect
inhibition at 1 µM [2]: 93.5%
pKi [2]: 7.92
analgesia ([4]; 2.5 mg/kg): 40%
analgesia ([4]; 10 mg/kg): 75%
analgesia ([4]; 40 mg/kg): 90%
activity in the carrageenan thermal hyperalgesia model [4]: highly active
inhibition at 1 µM [3, 8]: 104%
pKi [3, 9]: 7.95
inhibition of mechanical allodynia [5]: significant inhibition of mechanical allodynia

C[C@@H]1CN(CCC2CCCc3c2cnn3-c2ccc(F)cc2)C[C@H](C)O1.O=C(O)C(=O)O (stereo partly drawn) [Example 68, cis-1-(4-fluorophenyl)-4,5,6,7-tetrahydro-4-(2-(2,6-dimethylmorpholin-4-yl)ethyl)-1H-indazole oxalate]
melting point: 164 to 169 °C
inhibition at 1 µM [2]: 99.8%
pKi [2]: 7.45
inhibition at 1 µM [3, 8]: 98%
pKi [3, 9]: 7.83

C(/CN1CCOCC1)=C1/CCCc2c1cnn2-c1ccccc1.O=C(O)C(=O)O [Example 77, (E)-4,5,6,7-tetrahydro-4-(2-(morpholin-4-yl)ethylidene)-1-phenyl-1H-indazole oxalate]
antiallodynic effect [1]: clear antiallodynic effect

SKF 10047
affinity for the sigma-1 site [6]: nanomolar affinity
affinity for the sigma-2 site [7]: micromolar affinity
